In article PMC8575457, “Molecular reconstruction of recurrent evolutionary switching in olfactory receptor specificity” (eLife, 2021):
Where a chain is given by its changes, count along the chain named.

Tests used:
Assay in all cases: single sensillum extracellular recording, Ir decoder neuron
Conditions in all cases: 1% v/v odor in water, 10 ul, 500 ms pulse; agonist
[1] = target: T1, DmelIr75b (Drosophila melanogaster, UniProt A0A1S6EMU4)
T1 construct: gene IR75b
T1 sequence (A0A1S6EMU4 1-609): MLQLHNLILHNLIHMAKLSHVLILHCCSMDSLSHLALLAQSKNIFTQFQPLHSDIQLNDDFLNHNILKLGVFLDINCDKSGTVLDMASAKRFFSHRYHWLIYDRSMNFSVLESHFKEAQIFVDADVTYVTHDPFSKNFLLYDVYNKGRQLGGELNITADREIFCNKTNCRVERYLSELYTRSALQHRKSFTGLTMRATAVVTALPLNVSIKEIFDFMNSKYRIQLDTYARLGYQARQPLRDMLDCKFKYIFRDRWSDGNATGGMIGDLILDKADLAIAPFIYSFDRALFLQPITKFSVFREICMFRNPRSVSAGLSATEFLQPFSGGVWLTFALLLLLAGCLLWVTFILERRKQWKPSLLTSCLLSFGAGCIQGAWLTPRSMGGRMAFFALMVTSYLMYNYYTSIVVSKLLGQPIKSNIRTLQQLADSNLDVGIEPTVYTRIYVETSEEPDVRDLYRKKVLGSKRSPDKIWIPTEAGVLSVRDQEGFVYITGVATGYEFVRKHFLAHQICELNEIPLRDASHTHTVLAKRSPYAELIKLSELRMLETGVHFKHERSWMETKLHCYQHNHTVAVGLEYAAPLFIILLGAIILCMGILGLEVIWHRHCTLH
T1 sequence (Q9W365 18-936 partner): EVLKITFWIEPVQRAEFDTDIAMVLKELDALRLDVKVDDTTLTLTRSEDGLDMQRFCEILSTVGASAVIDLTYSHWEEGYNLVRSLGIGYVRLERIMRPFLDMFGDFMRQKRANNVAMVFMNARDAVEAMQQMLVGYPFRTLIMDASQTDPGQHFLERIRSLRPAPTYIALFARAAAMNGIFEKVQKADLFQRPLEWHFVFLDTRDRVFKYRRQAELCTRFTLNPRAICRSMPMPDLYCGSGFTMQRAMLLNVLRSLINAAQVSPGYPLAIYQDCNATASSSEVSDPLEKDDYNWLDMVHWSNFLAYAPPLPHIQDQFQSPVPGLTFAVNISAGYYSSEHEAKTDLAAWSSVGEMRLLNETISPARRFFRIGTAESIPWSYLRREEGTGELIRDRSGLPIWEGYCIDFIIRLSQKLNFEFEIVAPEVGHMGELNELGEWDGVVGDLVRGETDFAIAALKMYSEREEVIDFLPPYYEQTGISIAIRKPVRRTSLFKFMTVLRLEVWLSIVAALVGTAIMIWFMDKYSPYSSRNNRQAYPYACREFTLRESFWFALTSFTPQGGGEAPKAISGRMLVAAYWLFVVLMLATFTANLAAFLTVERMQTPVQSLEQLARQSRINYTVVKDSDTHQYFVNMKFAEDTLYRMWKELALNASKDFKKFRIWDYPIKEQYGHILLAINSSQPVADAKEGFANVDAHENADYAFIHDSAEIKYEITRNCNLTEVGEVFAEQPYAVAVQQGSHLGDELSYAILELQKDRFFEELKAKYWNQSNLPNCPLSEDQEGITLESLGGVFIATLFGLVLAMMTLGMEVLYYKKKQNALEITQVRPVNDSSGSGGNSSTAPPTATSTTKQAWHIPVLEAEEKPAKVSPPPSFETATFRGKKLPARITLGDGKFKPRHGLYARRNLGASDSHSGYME

[2] = target: T2, DmelIr75b^DsecS1 (Drosophila melanogaster, UniProt A0A1S6EMU4, I210K/M217L/K220Q/N259S/I277M/F289L/Q291K/T523S, form not given); type: cell-based
T2 construct: gene IR75b; UAS transgene in Ir decoder neuron; with Ionotropic receptor 8a (D. melanogaster, endogenous)
T2 sequence (A0A1S6EMU4 1-609 I210K/M217L/K220Q/N259S/I277M/F289L/Q291K/T523S): T1 sequence (A0A1S6EMU4 1-609) with I210K, M217L, K220Q, N259S, I277M, F289L, Q291K, T523S
T2 sequence (Q9W365 18-936 partner): T1 sequence (Q9W365 18-936 partner)

[3] = target: T3, DmelIr75a (Drosophila melanogaster, UniProt Q9VVL1, T289S/Q536K)
T3 construct: gene Ir75a
T3 sequence (Q9VVL1 1-629 T289S/Q536K): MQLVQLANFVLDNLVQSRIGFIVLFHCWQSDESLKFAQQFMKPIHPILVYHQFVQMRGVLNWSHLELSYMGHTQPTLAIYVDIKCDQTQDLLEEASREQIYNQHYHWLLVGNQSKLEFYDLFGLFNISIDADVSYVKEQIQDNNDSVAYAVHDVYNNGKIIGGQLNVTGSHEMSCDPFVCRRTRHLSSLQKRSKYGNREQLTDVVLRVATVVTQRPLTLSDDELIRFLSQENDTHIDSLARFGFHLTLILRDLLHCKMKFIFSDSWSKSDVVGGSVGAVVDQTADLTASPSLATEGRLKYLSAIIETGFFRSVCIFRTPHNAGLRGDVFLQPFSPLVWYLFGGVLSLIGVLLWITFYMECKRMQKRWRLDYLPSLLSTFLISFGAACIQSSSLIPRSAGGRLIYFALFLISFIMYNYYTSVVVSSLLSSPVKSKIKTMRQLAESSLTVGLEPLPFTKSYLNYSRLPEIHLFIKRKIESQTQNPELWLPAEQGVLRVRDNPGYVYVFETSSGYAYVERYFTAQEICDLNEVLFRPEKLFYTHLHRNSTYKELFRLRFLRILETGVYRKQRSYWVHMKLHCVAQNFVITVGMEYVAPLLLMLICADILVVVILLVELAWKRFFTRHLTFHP
T3 sequence (Q9W365 18-936 partner): T1 sequence (Q9W365 18-936 partner)

[4] = target: T4, DmelIr75a (Drosophila melanogaster, UniProt Q9VVL1, T289S/Q536K/F538L); type: cell-based
T4 construct: gene Ir75a; full-length cDNA, UAS transgene (attP40) expressed in D. melanogaster Ir decoder neuron (Ir84a-Gal4, Ir84a mutant) with endogenous Ir8a; predicted heterotetramer; with Ionotropic receptor 8a (D. melanogaster, endogenous)

CCCC(=O)O [C4, butyric acid]
solvent-corrected response (spikes/s) [1]: still has robust sensitivity to C4, like DmelIr75b but unlike DsecIr75b
solvent-corrected response (spikes/s) [2]: this receptor still has robust sensitivity to C4
solvent-corrected response (spikes/s) [3]: broadly tuned receptor that responds maximally (albeit weakly) to C2, C3, and C4
solvent-corrected response (spikes/s) [4]: produced a receptor that faithfully recapitulated the response properties of DsecIr75a
